Source: patent publication US20040235794A1, “Remedies for respiratory diseases comprising sphingosine-1-phosphate receptor controller” (priority 2001, published 2004)

Assays:
anesthetized guinea pig [1] = experiment: Inhibition of S1P-induced increase of airway resistance of anesthetized guinea pig in vivo; details: S1P 0.1 mg/mL inhaled; compound intravenously injected after increase of airway resistance
Protocol: The measurement of guinea pig airway resistance was carried out by the modified Konzett and Rossler method (Naunyn-Schmied. Arch. Exp. Path. Pharmak. 195, 71- ). Male Hartley guinea pigs (5 to 7 weeks-old, 300 to 500 g body weight in use) were anesthetized by pentobarbital (50 mg/kg intraabdominal dosage), and fixed at dorsal position. Then, trachea and jugular were cannulated. Airway was managed by a respirator (5 mL/stroke, 60 strokes/min) and air road was diverged with a T-tube and connected to broncho-spasm-transducer and airway resistance was measured. To guinea pigs, gallamine (1 mg/kg, i.v.) was administered and immobilized. S1P was vaporized and inhaled with supersonic wave type nebulizer for five minutes (Jpn. J. Pharm. 50, 445-466 (1989)). S1P (0.1 mg/mL) was inhaled to the anesthetized guinea pig, and airway resistance was measured. After a increase of strong airway resistance was recognized, compound 1 was intravenously injected.

human EDG-5 = target: T1, human EDG-5 (Homo sapiens, UniProt O95136); experiment: Antagonistic activity for EDG-5 (S1P-induced intracellular calcium, CHO cells); assay type: cell-based; details: CHO cells expressing human EDG-5, S1P 100 nM
T1 construct: expressed in transfected cells; host or cells: CHO cells
Protocol: Chinese hamster ovary (CHO) cells which expressed excessively human EDG-5 gene were cultured using a Ham's F12 medium (GIBCO BRL) containing 10% FBS (fetal bovine serum), penicillin/streptomycin, and blasticidin (5 μg/ml). Cultured cells were incubated in a Fura2 (5 μM) -AM solution [Ham's F12 medium containing FBS (10%), HEPES buffer (20 mM, pH7.4), and probenecid (2.5 mM)] at 37° C. for 60 minutes. Then washed once with a Hank's solution (2.5 mM) containing probenecid and immersed into the same solution. A plate was set on a fluorescent drug screening system, and measured for 30 seconds with no stimulation, a solution of a compound (dimethyl sulfoxide solution of 1 nM to 10 μM at the final concentration) to be tested was added. After lapse of 5 minutes, S1P (final concentration: 100 nM) was added, the intracellular calcium ion concentration before and after the addition was measured every 3 seconds (excitation wave length: 340 nm and 380 nm; fluorescent wave length: 500 nm). […]

[2] = system: Normal human airway smooth muscle cells; experiment: DNA synthesis (BrdU incorporation) of human airway smooth muscle cells induced by S1P; assay type: cell-based
Protocol: Normal human airway smooth muscle cells (BMSC; BioWhittaker) were cultured using MEM-A medium (GIBCO) containing 10% FBS (fetal calf serum), gentamicin (50 μg/mL), amphotericin B (50 ng/mL), and human bFGF, human insulin for 24 hours and deoxybromouridine (BrdU) was added.
Normal human airway smooth muscle cells (BMSC; BioWhittaker) were plated in 96 well plate using MEM-α medium containing human insulin at density of 1×10^4 cells/well. After 24 hour incubation, wash 2 times with Hanks solution, and serum-free medium (MEM-α/gentamicin (50 μg/mL), amphotericin B (50 ng/mL)) was added and incubated for 24 hours. S1P was added at the final concentration of 0.03 μM to 10 μM, deoxybromouridine (BrdU) was added at the same time, and incubated for 6 hours, and then the activity of BrdU incorporation was measured. As control, equal volume of physiological salt solution, which is vehicle of S1P, was added.
Cells were treated with BrdU, and culture supernatant was discarded. 150 μL of Cell fixation·DNA denaturation buffer was added to each well and incubated for 30 minutes. Cell fixation·DNA denaturation buffer was removed and blocking buffer (150 μL) was added. […] After 15 minutes, 25 μL of 2N sulfuric acid was added and absorbance at 450 nm was measured. […]

EDG-3 = target: T2, EDG-3 (Homo sapiens, UniProt Q99500); experiment: Antagonistic activity for EDG-3 (S1P-induced intracellular calcium, CHO cells); assay type: cell-based; details: CHO cells expressing EDG-3, S1P 100 nM
T2 construct: expressed in transfected cells; host or cells: CHO inferred from 'method as in EDG-5'

[3] = system: human airway smooth muscle cells; experiment: Cell toxicity assessment using released LDH; assay type: cell-based; details: released LDH as indicator
[4] = system: isolated trachea of guinea pig; experiment: Constriction of isolated trachea of guinea pig (magnus tube)
Protocol: The trachea of euthanized male Hartley ginea pig was removed and immersed quickly in Krebs-Henseleit solution (112 mmol/L sodium chloride, 5.9 mmol/L potassium chloride, 2.0 mmol/L calcium chloride, 1.2 mmol/L magnesium chloride, 1.2 mmol/L monobasic sodium phosphate, 25.0 mmol/L sodium hydrogen carbonate NaHCO3, 11.5 mmol/L glucose, 4° C.). A removed tissue was hooked as helical sample in magnus tube (volume: 10 mL) filled with Krebs-Henseleit solution (37±1° C., [aerated with 95% O2+5% CO2]). After stabilizing for 60 minutes in tensioned condition with 1 g, contraction was measured by recorder from force displacement transducer via distortion amplifier. The contraction of control was obtained by high concentration solution of potassium chloride (sodium chloride in Krebs-Henseleit solution was all exchanged to potassium chloride), or by stimulation with leukotriene D4 (LTD4) or histamine. After contraction by S1P, EDG-5 antagonist was added. Washing process of a specimen was repeated just in time, after hooked in magnus tube.

human EDG-1 = target: T3, human EDG-1 (Homo sapiens, UniProt P21453); experiment: Antagonistic activity for EDG-1 (S1P-induced intracellular calcium, CHO cells); assay type: cell-based; details: CHO cells expressing human EDG-1, S1P 100 nM
T3 construct: expressed in transfected cells; host or cells: CHO inferred from 'method as in EDG-5'; the EDG-1 sentence says only 'cells'

anesthetized guinea pig [5] = experiment: Airway resistance of anesthetized guinea pig after inhalation (modified Konzett and Rossler method); assay type: in vivo; details: for increase of airway resistance: inhalation for five minutes, 0.01 to 1 mg/mL, S1P effect at 0.1 to 1 mg/mL
Protocol: (§1) The measurement of guinea pig airway resistance was carried out by the modified Konzett and Rossler method (Naunyn-Schmied. Arch. Exp. Path. Pharmak. 195, 71- ). Male Hartley guinea pigs (5 to 7 weeks-old, 300 to 500 g body weight in use) were anesthetized by pentobarbital (50 mg/kg intraabdominal dosage), and fixed at dorsal position. Then, trachea and jugular were cannulated. Airway was managed by a respirator (5 mL/stroke, 60 strokes/min) and air road was diverged with a T-tube and connected to broncho-spasm-transducer and airway resistance was measured. To guinea pigs, gallamine (1 mg/kg, i.v.) was administered and immobilized. In this connection, acetylcholine was administered (30 μg/kg, i.v.) before inhalation of a compound in order to ascertain that that there was no considerable difference in sensitivity of transient airway constriction between individual animals, and then, animals which have coordinative sensitivity were used. S1P (Alexis) was vaporized and inhaled with supersonic wave type nebulizer (Omron NE U-07) for five minutes (Jpn. J. Pharm. 50, 445-466 (1989)). Complete obstruction (total area) was calculated as area as follows; deduct the value of airway resistance at startup of S1P inhalation from the value of airway resistance that is obtained at the time of clamping the tube of tracheal cannula side, and obtained value is multiplied by 10 minutes (5 minutes for inhalation and 5 minutes for post-inhalation). […] S1P (0.01 to 1 mg/mL) was inhaled to anesthetized guinea pig and airway resistance was measured. The reference example was carried out using 10% meylon and sphingosine (Matreya, 0.01 to 1 mg/mL) with method described in example 1.

anesthetized guinea pig [6] = experiment: Airway resistance of guinea pig after intravenous administration; assay type: in vivo; details: injected intravenously
Protocol: Male guinea pigs (Standard Hartley, 5 to 7 weeks-old, 300 to 500 g body weight in use) were anesthetized by pentobarbital (50 mg/kg intraabdominal dosage), and fixed at dorsal position. Then, trachea and jugular were cannulated. S1P was injected intravenously, and airway resistance was measured as described in Example 1.

anesthetized guinea pig [7] = experiment: Effect of pre-treatment on increase of airway resistance induced by S1P; assay type: in vivo; details: pretreatment 100 μg/mL, i.v.
Protocol: as §1, with “S1P (Alexis) was vaporized and inhaled with supersonic wave type nebulizer (Omron NE U-07) for five minutes (Jpn. J. Pharm. 50, 445-466 (1989)).” left out, “The reference example was carried out using 10% meylon and sphingosine (Matreya, 0.01 to 1 mg/mL) with method described in example 1.” left out

T1 sequence (O95136 whole entry): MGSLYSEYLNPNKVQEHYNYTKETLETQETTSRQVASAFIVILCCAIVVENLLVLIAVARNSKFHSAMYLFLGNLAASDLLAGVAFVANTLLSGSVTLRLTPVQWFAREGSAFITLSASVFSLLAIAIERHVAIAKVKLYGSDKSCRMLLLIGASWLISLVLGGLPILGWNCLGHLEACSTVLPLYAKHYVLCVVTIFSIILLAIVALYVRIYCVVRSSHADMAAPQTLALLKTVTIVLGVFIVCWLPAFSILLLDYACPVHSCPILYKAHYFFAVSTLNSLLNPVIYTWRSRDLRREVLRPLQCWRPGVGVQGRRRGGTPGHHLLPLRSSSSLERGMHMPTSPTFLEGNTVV
T2 sequence (Q99500 whole entry): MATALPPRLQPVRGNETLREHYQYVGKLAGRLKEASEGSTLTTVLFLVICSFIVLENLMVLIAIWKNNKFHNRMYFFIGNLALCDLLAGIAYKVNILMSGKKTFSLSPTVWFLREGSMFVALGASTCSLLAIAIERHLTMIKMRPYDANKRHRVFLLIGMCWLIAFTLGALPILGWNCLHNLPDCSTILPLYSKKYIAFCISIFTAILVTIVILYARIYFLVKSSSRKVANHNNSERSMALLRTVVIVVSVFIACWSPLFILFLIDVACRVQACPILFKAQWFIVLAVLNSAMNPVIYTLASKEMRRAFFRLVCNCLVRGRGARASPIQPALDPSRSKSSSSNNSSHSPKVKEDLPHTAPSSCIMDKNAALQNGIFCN
T3 sequence (P21453 whole entry): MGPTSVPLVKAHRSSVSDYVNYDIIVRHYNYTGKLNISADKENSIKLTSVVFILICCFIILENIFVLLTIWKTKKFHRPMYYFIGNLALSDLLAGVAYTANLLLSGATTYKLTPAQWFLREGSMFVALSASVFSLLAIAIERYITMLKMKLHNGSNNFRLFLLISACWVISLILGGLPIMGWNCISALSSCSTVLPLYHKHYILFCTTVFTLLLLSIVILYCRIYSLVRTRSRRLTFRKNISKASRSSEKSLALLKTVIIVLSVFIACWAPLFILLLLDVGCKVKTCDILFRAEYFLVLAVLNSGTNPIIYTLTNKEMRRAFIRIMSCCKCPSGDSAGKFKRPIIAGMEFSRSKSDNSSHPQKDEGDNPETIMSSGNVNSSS

Cc1nn(C)c2nc(NNC(=O)Nc3c(Cl)cncc3Cl)cc(C(C)C)c12 [Compound 1, N-(1H-1,3-dimethyl-4-isopropylpyrazolo[3,4-b]pyridine-6-yl)amino-N′-(3,5-dichloropyridine-4-yl)urea]
inhibition of increase of airway resistance induced by S1P (anesthetized guinea pig [1]): inhibited | IC50 (human EDG-5): 0.01 µM | antagonism of S1P-induced BrdU incorporation ([2]; compound 0.01 μM to 10 μM, S1P 3 μM, 6 hours): antagonized against S1P | IC50 (EDG-3): > 10 µM | LDH activity in medium [3]: did not enhancement LDH activity in medium | inhibition of constriction induced by S1P ([4]; added after contraction by S1P): inhibited constriction induced by S1P | IC50 (human EDG-1): > 10 µM

CCCCCCCCCCCCC/C=C/[C@@H](O)[C@@H](N)COP(=O)(O)O [Compound S1P, (2S, 3R, 4E)-2-amino-3-hydroxyoctadeca-4-enyl-1 phosphate]
increasing effect on airway resistance compared with inhalation of histamine (anesthetized guinea pig [5]; inhalation 0.01 to 1 mg/mL, converted to number of moles): at the same level | increase of airway resistance (anesthetized guinea pig [5]): strong increase of airway resistance was observed | increase of airway resistance (anesthetized guinea pig [6]): Increase of airway resistance was observed | increase of airway resistance compared with histamine (anesthetized guinea pig [6]): slight compared with that of histamine | DNA synthesis of human airway smooth muscle cells ([2]; S1P 0.03 μM to 10 μM, BrdU 6 hours): induces DNA synthesis | contraction of guinea pig trachea ([4]; S1P 10 μmol/L): very slow contraction | rate of contraction relative to other constricting drug (LTD4, histamine etc.) ([4]; S1P 10 μmol/L): 3 to 5 fold slower | time to plateau of contraction ([4]; S1P 10 μmol/L): 30 to 60 min

NCCc1c[nH]cn1 [histamine]
increase of airway resistance (anesthetized guinea pig [5]): increase of airway resistance | increase of airway resistance (anesthetized guinea pig [6]): increase

CC(C)(C)NCC(O)c1ccc(O)c(CO)c1 (stereo not shown) [salbutamol]
inhibition of increase of airway resistance induced by S1P (anesthetized guinea pig [7]): inhibited only partially

CCCCCCCCCCCCC/C=C/[C@@H](O)[C@@H](N)CO [sphingosine]
increase of airway resistance (anesthetized guinea pig [5]): increase of airway resistance was not observed
